In the assay the target is Cannabinoid receptor 1 (Homo sapiens, UniProt P21554). Description: Antagonist activity at CB1 receptor (unknown origin).
Cannabinoid receptor 1, sequence (P21554 whole entry): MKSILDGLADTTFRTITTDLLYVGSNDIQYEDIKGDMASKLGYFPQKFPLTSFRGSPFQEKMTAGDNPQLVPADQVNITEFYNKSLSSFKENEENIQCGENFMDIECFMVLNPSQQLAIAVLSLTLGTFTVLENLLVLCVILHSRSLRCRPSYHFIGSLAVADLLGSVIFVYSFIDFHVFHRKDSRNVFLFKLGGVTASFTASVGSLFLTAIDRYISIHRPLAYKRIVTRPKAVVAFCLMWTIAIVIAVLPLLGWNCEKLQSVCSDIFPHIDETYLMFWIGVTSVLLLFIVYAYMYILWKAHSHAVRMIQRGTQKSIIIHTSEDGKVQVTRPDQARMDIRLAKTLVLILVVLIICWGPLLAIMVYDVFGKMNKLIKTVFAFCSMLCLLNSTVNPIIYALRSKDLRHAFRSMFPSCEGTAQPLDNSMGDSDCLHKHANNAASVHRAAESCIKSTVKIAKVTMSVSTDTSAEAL

Turning to `O=C(NN1CCCCC1)c1nn(-c2ccc(Cl)cc2Cl)c2c1CCCc1c-2cccc1[N+](=O)[O-]`, the inhibitory constant (Ki) (as a rule, the dissociation constant of the complex between target and ligand, obtained from inhibition or displacement) turned out to be 100 nM.
Next, `CCCCCn1nc(C(=O)NN2CCCCC2)cc1-c1ccccc1`: 256 nM; `CCCCCCCn1nc(C(=O)NN2CCCCC2)cc1-c1ccccc1`: 327 nM.
`Cc1c(C(=O)NCC23CC4CC(CC(C4)C2)C3)nn(CCCCCCl)c1-c1ccccc1` displayed an inhibitory constant (Ki) of 6 nM.
Next, `Cc1c(C(=O)NN2CCCCC2)nn(C)c1-c1ccc(Cl)cc1`: 34700 nM.
In turn, `Cc1c(NC(=O)N2CCCCC2)nn(-c2ccc(Cl)cc2Cl)c1-c1ccc(Br)cc1` registered a Ki of 47 nM.
`O=C(NN1CCCCC1)c1nn(-c2ccc(Cl)cc2Cl)c2c1CCCc1cc([N+](=O)[O-])ccc1-2` came in with a Ki of 63 nM.
In turn, `O=C(NC1CCCCC1)c1nn(-c2ccc(Cl)cc2Cl)c(-c2ccc(Br)cc2)c1CO` registered a Ki of 6 nM.
Turning to `Cc1c(C(=O)Nc2ccc(-c3ccsc3)cc2)nn(CCCCCCl)c1-c1ccccc1`, the affinity, expressed as Ki, was 19.8 nM.
Take `Cc1c(C(=O)N(C)c2ccccc2)nn(-c2ccc(Cl)cc2Cl)c1-c1ccc(Br)cc1`: the inhibition constant Ki worked out at 31.1 nM.
`Cc1c(C(=O)NN2CCOCC2)nn(-c2ccc(Cl)cc2Cl)c1-c1ccccc1Br` registered an inhibition constant (Ki) of 11.7 nM.
With `COCc1c(C(=O)NC2CCCCC2)nn(-c2ccc(Cl)cc2Cl)c1C1C2(C)CCC(C2)C1(C)C` (stereo not drawn), affinity was put at a Ki of 241 nM.
For the molecule `COc1ccc(-c2c(F)c(C(=O)NN3CCCCC3)nn2-c2ccc(Cl)cc2Cl)cc1`, the inhibition constant (Ki) was found to be 18.2 nM.
The molecule `Cc1ccc(Cn2nc(C(=O)NC3CC4CCC3(C)C4(C)C)c(C)c2-c2ccc(Cl)c(C)c2)cc1` (stereo not drawn) had a Ki of 400 nM.
Molecule `CCCCCn1nc(C(=O)NN2CCCCC2)c(C)c1-c1ccc(Br)cc1` registered an inhibition constant (Ki) of 81.8 nM.
In turn, `Cc1c(C(=O)NCCO)nn(-c2ccc(Cl)cc2Cl)c1-c1ccc(Br)cc1` yielded a Ki of 1120 nM.
`Cc1c(C(=O)NN2CCCCC2)nn(-c2ccc(Cl)cc2Cl)c1-c1ccc(Br)cc1` had a Ki of 76.7 nM.
In turn, `CCCCCCCn1nc(C(=O)NN2CCCCC2)c(C)c1-c1ccccc1` had a Ki of 203 nM.
Regarding `CCCn1nc(C(=O)NN2CCCCC2)c(C)c1-c1ccccc1`, the Ki came out at 3560 nM.
`Cc1c(C(=O)NN2CCCCC2)nn(-c2ccc(Cl)cc2Cl)c1-c1ccc(N)cc1` displayed an inhibition constant Ki of 81.5 nM.
Next, `Cc1c(C(=O)NN2CCCCC2)nn(C2CCCCC2)c1-c1ccccc1`: 605 nM.
`Cc1c(C(=O)NN2CCOCC2)nn(-c2ccc(Cl)cc2Cl)c1-c1ccc(I)cc1` displayed a Ki of 13.2 nM.
On to `Cc1c(C(=O)NN)nn(-c2ccc(Cl)cc2Cl)c1-c1ccc(Cl)cc1`, for which the inhibition constant (Ki) was found to be 374 nM.

These data come from ChEMBL document CHEMBL3046337, “Activity landscape analysis, CoMFA and CoMSIA studies of pyrazole CB1 antagonists” (Med Chem Res, 2013).
